Active and inactive are the calls of the source. How the calls were made is not given here.
Test: non-covalent RecA intein splicing inhibitors, dose response, biochemical, cell-free, fluorescence, secondary screen (AID 449750)
For CCCCn1c(NC(=O)c2ccco2)c(S(=O)(=O)c2ccc(C)cc2)c2nc3ccccc3nc21, the AC50 was > 38 µM (inactive).
With O=C(CSCc1ccc([N+](=O)[O-])cc1)N/N=C/c1cccnc1 the AC50 was > 38 µM (inactive).
In the case of Cc1ccc(-c2cc(-c3ccc(C)cc3)[n+](-c3ccc(C(=O)[O-])cc3)c(-c3ccc(C)cc3)c2)cc1, the AC50 is reported as 37.5 µM.
With Cc1[nH]nc2c1C(c1ccsc1C)C(C#N)=C(N)O2 (stereo not given) the AC50 was > 38 µM (inactive).
For O=C(CN1CCN(S(=O)(=O)c2ccc(Cl)cc2)CC1)Nc1ccc2c(c1)OCO2, the AC50 was > 38 µM (inactive).
With CCOc1cc(C(c2c(C)[nH][nH]c2=O)c2c(C)[nH][nH]c2=O)ccc1OC(=O)c1cccc([N+](=O)[O-])c1 the AC50 was 6.48 µM.
In the case of CCn1c2ccccc2c2cc(C3C(C#N)=C(N)Oc4n[nH]c(COC)c43)ccc21 (stereo not given), the AC50 is reported as 8.48 µM.
In the case of COC(=O)c1ccccc1Sc1ncnc2onc(C)c12, the AC50 is reported as > 38 µM (inactive).
O=C(CCl)N(Cc1cc(=O)[nH]c2ccccc12)c1ccccc1 gave an AC50 of 8.46 µM.
In the case of CCOc1cc(/C=C(\C#N)C(=O)Nc2cccc(C(=O)O)c2)cc(Br)c1OC(=O)c1ccc(OC)cc1, the AC50 is reported as 8.34 µM.
CCC(C)N(CC(=O)Nc1cccc(C)c1C)C(=O)CCl (stereo not given) showed an AC50 of 30.2 µM.
For CCc1oc2ccccc2c1C(=O)c1cc(Br)c(O)c(Br)c1, the AC50 was 9.46 µM.
With CCN(CC)CCOc1ccc(/C(=C(/Cl)c2ccccc2)c2ccccc2)cc1 the AC50 was 9.31 µM.
With O=C1/C(=C\c2cccc(O)c2O)SC(=S)N1Cc1ccccc1 the AC50 was > 38 µM (inactive).
In the case of Cc1ccc(NC(=O)c2cnc(SCC(=O)NCC3CCCO3)n(C)c2=O)cc1C (stereo not given), the AC50 is reported as > 38 µM (inactive).
Compound CCc1ccc(S(=O)(=O)/N=C2\C=C(Nc3ccc(C(=O)O)cc3)C(=O)c3ccccc32)cc1 has an AC50 of 0.348 µM.
Work on CC(=O)N(Cc1ccc(F)cc1)C1=C(NCc2ccccc2)C(=O)c2ccccc2C1=O yielded an AC50 of 2.18 µM.
COc1ccc(S(=O)(=O)Nc2cc(SCC(=O)O)c(O)c3ccccc23)cc1 showed an AC50 of 2.14 µM.
With Cc1ccc(C(=O)C(OC(=O)CN2C(=O)c3ccccc3C2=O)c2ccccc2)cc1C (stereo not given) the AC50 was > 38 µM (inactive).
CCCCC[C@H](O)/C=C/[C@@H]1[C@@H](C/C=C\CCCC(=O)OC)[C@@H](O)C[C@H]1O showed an AC50 of 36.5 µM.
For CC(=O)Oc1ccc2c(=O)oc(-c3ccccc3C)nc2c1, the AC50 was > 38 µM (inactive).
With COc1ccc(/C=C2/C(=O)N(c3ccccc3)N=C2C)cc1 the AC50 was 5.27 µM.
For COc1ccc2ccc3c(c2c1)N=CC1(O3)N(C)c2ccccc2C1(C)C (stereo not given), the AC50 was 4.49 µM.
NS(=O)(=O)c1ccc(NC2=CC(=O)C(=O)c3ccccc32)cc1 showed an AC50 of 7.47 µM.
For COC(CNC(=O)c1ccc2c3c(onc13)-c1ccccc1C2=O)OC, the AC50 was > 38 µM (inactive).
For Cc1ccc(NC(=O)c2nc(S(=O)(=O)Cc3ccccc3C)ncc2Cl)cc1C, the AC50 was > 38 µM (inactive).
Compound CC1=NN(c2ccc(Cl)cc2)C(=O)C1C(c1cccc(O)c1)c1c(C)[nH]n(-c2ccc(Cl)cc2)c1=O (stereo not given) has an AC50 of 7.91 µM.
Work on Oc1c(Cl)cc(Cl)c(Cl)c1Cc1c(O)c(Cl)cc(Cl)c1Cl yielded an AC50 of 6.85 µM.
For [O-]C1=N/[N+](=C/c2ccccc2Cl)CC1, the AC50 was > 38 µM (inactive).
With Cc1ccc(Sc2c([N+](=O)[O-])ncn2C)cc1 the AC50 was > 38 µM (inactive).
With CCCCCCCOC(=O)c1ccc(OC(=O)c2cccnc2)cc1 the AC50 was 4.17 µM.
Compound Nc1c(N2CCCC2)cc(Cl)c2nonc12 has an AC50 of 4.13 µM.
In the case of CC[n+]1ccc2cc(OC)c(OC)cc2c1Cc1ccc(OC)c(OC)c1, the AC50 is reported as > 38 µM (inactive).
CCCc1[nH]nc2c1C(c1ccc(OC)c(CSC3=NCCS3)c1)C(C#N)=C(N)O2 (stereo not given) gave an AC50 of 18.5 µM.
Work on CC1=NN(c2ccccc2)C(=O)/C1=C/c1ccc(Cl)cc1 yielded an AC50 of 4.65 µM.
Work on O=C(CCl)Nc1c(C(=O)Nc2ccc3c(c2)OCCO3)oc2ccccc12 yielded an AC50 of 4.49 µM.
For CC(=O)N1C(=O)C2(C(C#N)=C(N)Oc3c2c(C)nn3-c2ccccc2)c2ccccc21 (stereo not given), the AC50 was 28 µM.
For Cc1cccc(N2C(=O)C(Cl)=C(N3CCOCC3)C2=O)c1, the AC50 was > 38 µM (inactive).
CCOC(=O)c1c(NC(=O)CCl)sc(C(=O)N(CC)CC)c1C showed an AC50 of 4.22 µM.
For COc1cc(/C=C(\C#N)C(=O)Nc2ccc3c(c2)OCCO3)ccc1O, the AC50 was > 38 µM (inactive).
Work on Nc1cc2nn(-c3ccccc3)nc2cc1Cl yielded an AC50 of 7.05 µM.
In the case of O=S(=O)(Cc1ccccc1)c1cnc2ccccc2n1, the AC50 is reported as > 38 µM (inactive).
In the case of O=C1CCN(N=Nc2cccc(Cl)c2)N1, the AC50 is reported as > 38 µM (inactive).
Work on CC(C)(C)c1ccc(S(=O)(=O)/N=C2\C=C(NS(=O)(=O)c3ccccc3)C(=O)c3ccccc32)cc1 yielded an AC50 of 5.5 µM.
Work on COc1cc(/C=C2\C(=O)N(CCC#N)N=C2C)ccc1OCC(=O)Nc1ccccc1 yielded an AC50 of 8.37 µM.
With CCC(C)[C@H](NC(=O)NC1CCN(Cc2ccccc2)CC1)C(=O)OC (stereo not given in full) the AC50 was 5.82 µM.
For CCOC(=O)N1CCC(c2cc(=O)n(-c3ccccc3)[nH]2)CC1, the AC50 was 6.18 µM.
For O=C(Cc1cc(=O)[nH][nH]1)N/N=C/C=C/c1ccccc1, the AC50 was 20.8 µM.
Cc1cc(OC(=O)c2ccccc2)n(CCC#N)n1 showed an AC50 of 17.7 µM.
Work on COc1ccccc1Oc1cc(C#N)c(C#N)cc1-n1nnc2ccccc21 yielded an AC50 of 16.5 µM.
COc1ccc(C2=NN(C(=O)/C=C/c3ccccc3)C(c3ccccc3)C2)c(OC(C)=O)c1 (stereo not given) gave an AC50 of 2.24 µM.
With COc1ccccc1-c1c(C)oc2cc(OC(=O)c3ccco3)ccc2c1=O the AC50 was > 38 µM (inactive).
Compound CCCc1nnc(NC(=O)c2nc(S(=O)(=O)Cc3ccc(C)cc3)ncc2Cl)s1 has an AC50 of 1.55 µM.
For CSc1nnc(NC(=O)c2nc(S(=O)(=O)Cc3ccccc3)ncc2Cl)s1, the AC50 was > 38 µM (inactive).
In the case of O=C(Oc1ccc(N(C(=O)c2ccncc2)S(=O)(=O)c2ccc(Cl)cc2)cc1)c1ccncc1, the AC50 is reported as > 38 µM (inactive).
With CCN(CC)c1ccc(/C=N/Nc2nc(C)cc(=O)[nH]2)c(O)c1 the AC50 was > 38 µM (inactive).
With Cc1ccccc1CS(=O)(=O)c1nnc([C@H](CC(C)C)NC(=O)OC(C)(C)C)o1 the AC50 was > 38 µM (inactive).
With CCOC(=O)c1nc(C)n(-c2ccc(Cl)cc2)n1 the AC50 was > 38 µM (inactive).
For Fc1ccc(Sc2nc(-c3ccccc3)nnc2C(F)(F)F)cc1, the AC50 was > 38 µM (inactive).
With O=c1cc(-c2cccc([N+](=O)[O-])c2)[nH][nH]1 the AC50 was 9.77 µM.
With O=C(NCCc1ccccc1)C(c1cccs1)N(C(=O)CCl)c1ccc(Cl)cc1 (stereo not given) the AC50 was 1.03 µM.
For C/C(CC(=O)Nc1cc(C)ccn1)=N\NC(=O)c1ccncc1, the AC50 was 37.4 µM.
In the case of COc1cc(C(c2c(C)[nH][nH]c2=O)c2c(C)[nH][nH]c2=O)ccc1OS(=O)(=O)c1ccccc1, the AC50 is reported as 9.54 µM.
For COC(=O)Cc1c(C)[nH]n(-c2cc(Cl)cc(Cl)c2)c1=O, the AC50 was > 38 µM (inactive).
For C=CCn1c(N)c(C(=O)Nc2cccc(C)c2)c2nc3ccccc3nc21, the AC50 was 14.4 µM.
Work on COc1cc(C2C(C#N)=C(N)Oc3n[nH]c(-c4cccnc4)c32)cc(Br)c1O (stereo not given) yielded an AC50 of 4.01 µM.
For CC(C)(C)OC(=O)N/N=C\c1ccc(OC(=O)c2ccco2)cc1, the AC50 was > 38 µM (inactive).
CCCNC1=C(N(C(C)=O)c2cccc(F)c2)C(=O)c2ccccc2C1=O gave an AC50 of 3.72 µM.
For COc1ccc2[nH]c3c(Cl)ncnc3c2c1, the AC50 was > 38 µM (inactive).
With COc1ccc(N(C(=O)c2ccco2)S(=O)(=O)c2cccs2)cc1 the AC50 was > 38 µM (inactive).
Work on COc1ccc(C2=NN(c3nc(C)cc(C)n3)C(=O)C2)cc1 yielded an AC50 of 5.75 µM.
Work on Cc1ccc(C2=NN(C(=O)CCl)C(c3ccco3)C2)o1 (stereo not given) yielded an AC50 of 6.65 µM.
In the case of O=C(NNC(=O)c1ccc([N+](=O)[O-])o1)c1ccccc1, the AC50 is reported as 33.6 µM.
With CCOC(=O)CN1C(=O)N[C@@H](c2cccc(C(F)(F)F)c2)C(C(C)=O)=C1C the AC50 was > 38 µM (inactive).
For c1ccc(C2[C@H]3CN(Cc4cccnc4)[C@H](c4ccccc4)C34CC2(c2cccnc2)C4)cc1 (stereo not given in full), the AC50 was 10.7 µM.
In the case of O=C(c1ccc2nc(Cc3cccc(Cl)c3)oc2c1)N1CCC(O)CC1, the AC50 is reported as > 38 µM (inactive).
In the case of Cc1ccc(C)c(NC2=C(Cl)C(=O)OC2OC(=O)c2ccco2)c1 (stereo not given), the AC50 is reported as > 38 µM (inactive).
Compound Cc1ccc(S(=O)(=O)Nc2c(O)ccc3ccccc23)cc1 has an AC50 of 8.05 µM.
CCOc1cc(C(c2c(C)[nH][nH]c2=O)c2c(C)[nH][nH]c2=O)ccc1OCc1ccc([N+](=O)[O-])cc1 gave an AC50 of 6.09 µM.
O=c1[nH]c(Nc2ccccc2)cc2ccccc12 showed an AC50 of 1.68 µM.
CC(C)CC1C(C#N)=C(N)Oc2n[nH]c(-c3ccccc3)c21 (stereo not given) gave an AC50 of 23.1 µM.
Work on COc1cccc(C(c2c(C)[nH]n(-c3ccccc3)c2=O)c2c(C)[nH]n(-c3ccccc3)c2=O)c1O yielded an AC50 of 2.35 µM.
Work on Cc1cc(=O)n(-c2ccccc2Cl)[nH]1 yielded an AC50 of 22.3 µM.
In the case of CN1N=C(C(C)(C)C)CC1=O, the AC50 is reported as > 38 µM (inactive).
With COc1nc(NC(C)C)nc(N(C#N)CN2C(=O)c3ccccc3S2(=O)=O)n1 the AC50 was > 38 µM (inactive).
For CC(C)c1[nH]nc2c1C(c1cccc(OC(=O)N3CCOCC3)c1)C(C#N)=C(N)O2 (stereo not given), the AC50 was > 38 µM (inactive).
For COCCOC(=O)C1=C(C)N=C2SCCC(=O)N2C1c1ccc(OC(=O)c2ccco2)cc1 (stereo not given), the AC50 was > 38 µM (inactive).
With Oc1[nH]c2ccccc2c1N=NC(=S)N1CCOCC1 the AC50 was > 38 µM (inactive).
For N#Cc1c(N2CCCC2)nc(N)c2c(N)nc(N3CCCC3)cc12, the AC50 was 0.774 µM.
CC1CC(C)CN(C(=O)c2ccc3c(c2)N(Cc2ccccc2)CCS3)C1 (stereo not given) showed an AC50 of 14 µM.
For COc1ccc(C2CC(c3cccs3)=NN2C(=O)CCl)cc1OC (stereo not given), the AC50 was 3.39 µM.
In the case of O=C(c1c[nH]c(C(=O)C(Cl)(Cl)Cl)c1)c1ccccc1Cl, the AC50 is reported as 24.9 µM.
With CCCc1nn(C)c2c1C(c1cccnc1)C(C#N)=C(N)O2 (stereo not given) the AC50 was > 38 µM (inactive).
Work on O=C1/C(=C/c2ccc(F)cc2)SC(=S)N1CC(=O)N1CCCCC1c1cccnc1 (stereo not given) yielded an AC50 of 38.4 µM.
For CCc1[nH]nc2c1C(Cc1ccccc1)C(C#N)=C(N)O2 (stereo not given), the AC50 was > 38 µM (inactive).
With CCc1ccc(OCC(=O)N/N=C2\CC(=O)c3ccccc32)cc1 the AC50 was 26.8 µM.
COc1ccc(/C=C2/C(=O)N(c3ccccc3)N=C2C)cc1OC gave an AC50 of 5.49 µM.
With CC1=NN(C)C(=O)C1Cc1c(F)cccc1Cl (stereo not given) the AC50 was > 38 µM (inactive).
For COC(=O)C1=NN(C(C)=O)C2(CC(=O)N(c3cc(C)cc(C)c3)C2=O)C1 (stereo not given), the AC50 was > 38 µM (inactive).
With Cc1ccc(NC(=O)CCl)cc1S(=O)(=O)N1CCCCCC1 the AC50 was 10 µM.
Work on CC(=O)c1cccc2c(O)c(C3=Nc4ccccc4C3=O)[nH]c12 yielded an AC50 of 34.6 µM.
Compound Cc1ccc(NC(=O)c2cc(NC(=O)/C=C\C(=O)O)ccc2N2CCCCC2)cc1 has an AC50 of 9.66 µM.
CCCCCCN(C(=O)CCl)c1ccccc1 gave an AC50 of 3.5 µM.
Compound CCOc1cccc(-c2cc(=O)[nH][nH]2)c1 has an AC50 of 10.7 µM.
In the case of Cc1cc(-c2[nH]nc3c2C(c2ccsc2)C(C#N)=C(N)O3)c(C)s1 (stereo not given), the AC50 is reported as 13.6 µM.
